The record followed here is patent US20260364184A1, “COMPOUND BASED ON OXOISOINDOLINYL-SUBSTITUTED TETRAHYDROPYRIMIDINE-DIONE AND USE THEREOF” (GLUETACS THERAPEUTICS (SHANGHAI) CO., LTD., priority 2023, published 2026).

The subject of assay [1] is Human non-small cell lung cancer cell line NCI-H1975. Nature of the assay: Inhibition of H1975 cell proliferation (CellTiter luminescent viability). Format: cell-based. Particulars: Table ID1, EGFR inhibitor-based; H1975, 96 hours; read-out: Inhibitory activity (IC50, nM) on tumor cell proliferation, H1975. The procedure: The tumor cells used herein were cultured in a cell culture medium listed in table 3 at 37 °C in an incubator with 5% CO2. Prior to experimentation, all cell lines used were correctly identified by STR profiling, and tested negative for mycoplasma contamination using a mycoplasma detection kit through routine screenings.
The IC50 values of the compounds of the present disclosure (including the compounds in Table 1, Table 2, and Examples 1-468) were determined using the CellTiter-Meiluncell Luminescent Cell Viability Assay Kit from Dalian Meilun Biotech Co., Ltd. The detailed procedure is as follows: Tumor cells were seeded in 96-well cell culture plates at the densities specified in Table 4. On the following day, the test compounds of the present disclosure were subjected to serial dilution. The dilution can be performed according to one of the following two methods: • (1) The first dilution method: The test compounds of the present disclosure (including the compounds in Table 1, Table 2, and Examples 1-468) were subjected to 5-fold serial dilutions starting from a highest concentration of 2000 μM, resulting in a total of 9 concentrations from high to low (2000, 400, 80, 16, 3.2, 0.64, 0.128, 0.0256, 0.00512 μM). Subsequently, 0.5 μL of the test compound dilution was transferred into the 96-well plate containing the cells, with each well containing 100 μL of cell culture medium. […] Into the 96-well plate, the diluted test compounds and corresponding detection reagents were added, resulting in final test compound concentrations of 500 nM and 10 nM, respectively. The experimental procedure is described below using the diluted 2 μM test compound as an example.
0.5 μL of the aforementioned diluted compound of the present disclosure (including the compounds in Table 1, Table 2, and Examples 1-468) was added to the seeded cells in 100 μL of medium, yielding a final test compound concentration of 10 nM. After the cells were treated with the compounds of the present disclosure for a specified period, the cell viability assay reagent was added to the culture medium according to the kit's instructions to determine cell viability. […] All controls were treated using the same procedure as the compounds of the present disclosure. The growth inhibition curves for the compounds of the present disclosure were plotted using Prism GraphPad software, and the IC50 values were calculated therefrom.

Assay [2] concerns the target T1, human Cereblon WT GST-tagged protein (CRBN) (Homo sapiens, UniProt Q96SW2).
T1 construct: purchased CISBIO 64BDCRBNPEH
Nature of the assay: CRBN binding by HTRF (Cereblon binding kit). Summed up:
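GST-tagged human Cereblon WT was incubated 3 h at room temperature with compound, thalidomide-Re tracer and Eu anti-GST antibody. Final compound concentrations were 10 to 0.00064 µM (7 points) or 2 and 0.5 µM. Inhibition rate was calculated from HTRF 665/620 nm ratios versus solvent and blank controls.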
In general terms: In TR-FRET formats the signal depends on donor and acceptor labels being close together.

Another assay deals with T2, EGFR (Homo sapiens, UniProt P00533).
T2 construct: L858R/T790M in cis, heterozygous with wild type), Western blot
Description: Western blot degradation of EGFR. Particulars: H1975 Cell; 24 hours. In kind it is cell-based. Summed up: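 Immunoblot of drug-treated versus DMSO-treated cell lysates, with densitometric quantification. Values: DC50 (50% band loss, fitted) and loading-control-normalised % remaining or degradation.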
A general note: Immunoblotting shows a protein as a band on a membrane.

T1 sequence (Q96SW2 whole entry): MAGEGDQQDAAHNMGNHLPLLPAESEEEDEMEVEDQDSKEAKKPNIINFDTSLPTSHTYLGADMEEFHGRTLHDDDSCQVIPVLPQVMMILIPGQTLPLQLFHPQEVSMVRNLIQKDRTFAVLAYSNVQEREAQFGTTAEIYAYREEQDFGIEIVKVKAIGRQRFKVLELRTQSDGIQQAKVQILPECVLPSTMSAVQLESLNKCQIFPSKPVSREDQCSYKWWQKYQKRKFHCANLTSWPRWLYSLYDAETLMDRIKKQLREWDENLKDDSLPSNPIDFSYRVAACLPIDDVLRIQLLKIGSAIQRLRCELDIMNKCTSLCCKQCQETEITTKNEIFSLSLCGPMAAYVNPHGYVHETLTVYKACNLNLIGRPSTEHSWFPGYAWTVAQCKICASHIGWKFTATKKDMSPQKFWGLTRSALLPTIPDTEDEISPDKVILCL
T2 sequence (P00533 25-1210): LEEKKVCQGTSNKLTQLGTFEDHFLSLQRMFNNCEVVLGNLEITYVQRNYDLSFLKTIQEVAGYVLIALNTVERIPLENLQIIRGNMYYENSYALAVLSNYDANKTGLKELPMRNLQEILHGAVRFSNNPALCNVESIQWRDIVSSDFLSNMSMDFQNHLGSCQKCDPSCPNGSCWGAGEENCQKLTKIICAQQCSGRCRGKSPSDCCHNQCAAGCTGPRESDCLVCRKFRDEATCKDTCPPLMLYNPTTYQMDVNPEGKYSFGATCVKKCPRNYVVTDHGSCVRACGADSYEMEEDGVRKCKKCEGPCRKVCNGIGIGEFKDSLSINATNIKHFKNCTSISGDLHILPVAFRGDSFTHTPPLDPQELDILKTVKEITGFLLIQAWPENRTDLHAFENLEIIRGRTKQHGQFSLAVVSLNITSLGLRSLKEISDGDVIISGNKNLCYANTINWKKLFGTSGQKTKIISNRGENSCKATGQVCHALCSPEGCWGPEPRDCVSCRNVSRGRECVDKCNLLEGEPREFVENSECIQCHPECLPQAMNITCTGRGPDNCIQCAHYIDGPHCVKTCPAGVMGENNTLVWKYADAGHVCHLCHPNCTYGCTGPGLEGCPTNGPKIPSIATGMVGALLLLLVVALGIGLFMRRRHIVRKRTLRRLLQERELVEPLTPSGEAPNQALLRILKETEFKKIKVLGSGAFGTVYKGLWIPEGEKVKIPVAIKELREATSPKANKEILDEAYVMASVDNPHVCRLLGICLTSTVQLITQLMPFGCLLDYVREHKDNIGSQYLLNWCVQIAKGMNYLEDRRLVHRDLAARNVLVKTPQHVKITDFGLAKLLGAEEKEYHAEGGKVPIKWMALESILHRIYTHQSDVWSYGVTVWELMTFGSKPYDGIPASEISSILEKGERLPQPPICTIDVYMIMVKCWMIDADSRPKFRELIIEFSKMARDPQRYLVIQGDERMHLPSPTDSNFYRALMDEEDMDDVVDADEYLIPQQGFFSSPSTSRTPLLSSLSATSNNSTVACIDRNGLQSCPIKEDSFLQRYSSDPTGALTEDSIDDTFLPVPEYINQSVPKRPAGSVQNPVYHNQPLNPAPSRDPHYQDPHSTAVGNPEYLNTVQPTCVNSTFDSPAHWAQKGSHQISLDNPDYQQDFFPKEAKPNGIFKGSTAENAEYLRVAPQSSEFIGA
T2 sequence (Q96SW2 whole entry partner): as the sequence (Q96SW2 whole entry) above

Take `O=C1CCN(N2Cc3cc(CN4CCN(C5CCN(c6ccc(-c7cc(F)c8c(c7)C(=O)N(C(C(=O)Nc7nccs7)c7ncn9c7CCC9)C8)cc6)CC5)CC4)ccc3C2=O)C(=O)N1` (centres unmarked) [GT-06241, 2-(6,7-dihydro-5H-pyrrolo[1,2-c]imidazol-1-yl)-2-(6-(4-(4-(4-((2-(2,4-dioxotetrahydropyrimidin-1(2H)-yl)-1-oxoisoindolin-5-yl)methyl)piperazin-1-yl)piperidin-1-yl)phenyl)-4-fluoro-1-oxoisoindolin-2-yl)-N-(thiazol-2-yl)acetamide]: the IC50 in assay [1] was 10 to 50 nM. In addition, in assay [2], the “Inhibition Rate at 0.5 μM (%)” value is given as “a1 (10% < a1 ≤ 20%)” and the “Inhibition Rate at 2 μM (%)” value is “a5 (53% < a5 ≤ 60%)”. Besides, the “Degradation of substrate protein EGFR (substrate protein remaining %)” value on EGFR is “A (0%≤substrate protein remaining %≤80%)”.

As for `O=C1CCN(N2Cc3cc(CN4C[C@@H]5C[C@H]4CN5c4ccc(-c5cc(F)c6c(c5)C(=O)N(C(C(=O)Nc5nccs5)c5ncn7c5CCC7)C6)cc4)ccc3C2=O)C(=O)N1` (stereo partly drawn) [GT-05114, 2-(6,7-dihydro-5H-pyrrolo[1,2-c]imidazol-1-yl)-2-(6-(4-((1S,4S)-5-((2-(2,4-dioxotetrahydropyrimidin-1(2H)-yl)-1-oxoisoindolin-5-yl)methyl)-2,5-diazabicyclo[2.2.1]heptan-2-yl)phenyl)-4-fluoro-1-oxoisoindolin-2-yl)-N-(thiazol-2-yl)acetamide], the IC50 in assay [1] lay in the range of 100 to 130 nM. In addition, in assay [2], the “Inhibition Rate at 0.5 μM (%)” value is recorded as “a2 (20% < a2 ≤ 30%)” and the “Inhibition Rate at 2 μM (%)” value is listed as “a5 (53% < a5 ≤ 60%)”. Moreover, the “Degradation of substrate protein EGFR (substrate protein remaining %)” value on EGFR is reported as “A (0%≤substrate protein remaining %≤80%)”.
